The target in experiment [1] is T1, Human PDGFRβ, cytoplasmic domain (GST-PDGFRβ) (Homo sapiens, UniProt P09619).
T1 construct: made in house
The experiment in a line: Human PDGFRβ biochemical inhibition assay (off-chip Mobility Shift Assay). Summed up: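 GST-tagged cytoplasmic domain (aa 557-1106) from baculovirus was incubated 1 h at room temperature with compound, CSKtide, ATP at Km and Mg²⁺ in HEPES buffer, pH 7.5. Phosphorylated and unphosphorylated peptide were separated by off-chip mobility shift, and the product ratio P/(P+S) gave percent inhibition.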

In experiment [2] the target is T2, Human PDGFRα, cytoplasmic domain (GST-PDGFRα) (Homo sapiens, UniProt P16234).
T2 construct: made in house
The experiment in a line: Human PDGFRα biochemical inhibition assay (off-chip Mobility Shift Assay).

Bounds are passed on as bounds.

The values that follow come from patent US20230102554A1 (GB002, INC., priority 2019, published 2023).

T1 sequence (P09619 with tags, fused parts or gaps): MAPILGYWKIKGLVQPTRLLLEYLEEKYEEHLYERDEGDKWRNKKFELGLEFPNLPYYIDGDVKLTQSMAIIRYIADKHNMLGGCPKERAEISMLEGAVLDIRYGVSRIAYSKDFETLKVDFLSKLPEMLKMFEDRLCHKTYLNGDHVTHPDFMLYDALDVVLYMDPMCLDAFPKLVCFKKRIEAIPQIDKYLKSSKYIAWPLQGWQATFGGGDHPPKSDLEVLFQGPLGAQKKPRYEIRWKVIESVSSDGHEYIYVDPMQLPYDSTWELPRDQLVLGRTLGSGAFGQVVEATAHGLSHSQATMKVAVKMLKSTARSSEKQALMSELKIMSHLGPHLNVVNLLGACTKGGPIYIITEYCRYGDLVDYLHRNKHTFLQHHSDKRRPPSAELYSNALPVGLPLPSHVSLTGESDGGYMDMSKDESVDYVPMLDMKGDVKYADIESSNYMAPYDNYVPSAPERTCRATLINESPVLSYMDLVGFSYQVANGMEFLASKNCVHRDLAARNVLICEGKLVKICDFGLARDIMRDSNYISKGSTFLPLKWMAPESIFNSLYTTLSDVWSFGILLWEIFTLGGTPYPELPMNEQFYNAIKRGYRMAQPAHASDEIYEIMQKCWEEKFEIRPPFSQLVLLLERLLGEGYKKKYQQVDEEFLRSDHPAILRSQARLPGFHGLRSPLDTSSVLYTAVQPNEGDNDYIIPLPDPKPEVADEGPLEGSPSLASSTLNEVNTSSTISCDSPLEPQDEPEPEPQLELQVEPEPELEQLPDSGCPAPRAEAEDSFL
T2 sequence (P16234 550-1089 T674I): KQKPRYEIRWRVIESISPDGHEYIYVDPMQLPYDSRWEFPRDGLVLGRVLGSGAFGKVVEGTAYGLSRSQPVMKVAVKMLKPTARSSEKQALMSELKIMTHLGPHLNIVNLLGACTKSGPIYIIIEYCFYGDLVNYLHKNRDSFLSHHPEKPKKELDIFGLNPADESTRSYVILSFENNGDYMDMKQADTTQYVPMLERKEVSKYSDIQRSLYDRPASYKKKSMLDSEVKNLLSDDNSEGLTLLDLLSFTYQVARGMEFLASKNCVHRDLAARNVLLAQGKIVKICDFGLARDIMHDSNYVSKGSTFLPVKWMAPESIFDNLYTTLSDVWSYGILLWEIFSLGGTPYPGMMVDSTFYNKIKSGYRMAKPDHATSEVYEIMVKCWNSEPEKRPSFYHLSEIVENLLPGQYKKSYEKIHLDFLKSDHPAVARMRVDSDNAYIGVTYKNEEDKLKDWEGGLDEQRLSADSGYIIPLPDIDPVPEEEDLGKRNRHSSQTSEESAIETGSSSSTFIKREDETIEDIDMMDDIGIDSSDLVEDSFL

Consider `CCn1cc2ncc(N[C@@H](C)c3cc(NC(=O)c4cnn(C(C)C)c4)ccc3F)nc2n1` [Compound 313, (S)-N-(3-(1-((2-ethyl-2H-pyrazolo[3,4-b]pyrazin-6-yl)amino)ethyl)-4-fluorophenyl)-1-isopropyl-1H-pyrazole-4-carboxamide], for which the IC50 in experiment [1] and in experiment [2] was below 300 nM each time.
As for `CCn1cc2ncc(N[C@@H](C)c3cc(NC(=O)c4ccc(CN5CCN(C)CC5)c(Cl)c4)ccc3F)nc2n1` [Compound 429, (S)-3-chloro-N-(3-(1-((2-ethyl-2H-pyrazolo[3,4-b]pyrazin-6-yl)amino)ethyl)-4-fluorophenyl)-4-((4-methylpiperazin-1-yl)methyl)benzamide], the IC50 in experiment [1] and in experiment [2] was below 300 nM throughout.
For the compound `CC(C)COc1ncc(C(=O)Nc2cccc([C@H](C)Nc3cnc4cnn(C)c4n3)c2)cc1Cl` [Compound 262, (S)-5-chloro-6-isobutoxy-N-(3-(1-((1-methyl-1H-pyrazolo[3,4-b]pyrazin-6-yl)amino)ethyl)phenyl)nicotinamide], the IC50 in experiment [1] and in experiment [2] was below 300 nM each time.
With `Cc1n[nH]c2ncc(N[C@@H](C)c3cccc(NC(=O)c4ccc(C(F)(F)F)nc4)c3)nc12` [Compound 534, (S)-N-(3-(1-((3-methyl-1H-pyrazolo[3,4-b]pyrazin-5-yl)amino)ethyl)phenyl)-6-(trifluoromethyl)nicotinamide], the IC50 in experiment [1] and in experiment [2] was below 300 nM each time.
As for `Cc1cncc(C(=O)Nc2ccc(F)c([C@H](C)Nc3cnc4cnn(C)c4n3)c2)c1` [Compound 172], the IC50 in experiment [1] and in experiment [2] was below 300 nM each time.
As for `Cc1cc(C(=O)Nc2cccc([C@H](C)Nc3cnc4cnn(C)c4n3)c2)ccc1CN1CCOCC1` [Compound 209, (S)-3-methyl-N-(3-(1-((1-methyl-1H-pyrazolo[3,4-b]pyrazin-6-yl)amino)ethyl)phenyl)-4-(morpholinomethyl) benzamide], the IC50 in experiment [1] and in experiment [2] was below 300 nM each time.
For `Cc1n[nH]c2ncc(N[C@@H](C)c3cccc(NC(=O)c4cnc(C5CC5)s4)c3)nc12` [Compound 541, (S)-2-cyclopropyl-N-(3-(1-((3-methyl-1H-pyrazolo[3,4-b]pyrazin-5-yl)amino)ethyl)phenyl)thiazole-5-carboxamide], the IC50 in experiment [1] and in experiment [2] was below 300 nM each time.
Consider `CCn1cc2ncc(N[C@@H](C)c3cccc(NC(=O)c4ccc(CN5CC(F)C5)c(Cl)c4)c3)nc2n1` [Compound 495, (S)-3-chloro-N-(3-(1-((2-ethyl-2H-pyrazolo[3,4-b]pyrazin-6-yl)amino)ethyl)phenyl)-4-((3-fluoroazetidin-1-yl)methyl) benzamide], for which the IC50 in experiment [1] and in experiment [2] was below 300 nM each time.
With `Cc1cc(C(=O)Nc2cccc([C@H](C)Nc3cnc4cnn(C)c4n3)c2)cnc1N1CC2(COC2)C1` [Compound 259, (S)-5-methyl-N-(3-(1-((1-methyl-1H-pyrazolo[3,4-b]pyrazin-6-yl)amino)ethyl)phenyl)-6-(2-oxa-6-azaspiro[3.3]heptan-6-yl) nicotinamide], the IC50 in experiment [1] and in experiment [2] was below 300 nM in each case.
With `CCn1cc2ncc(N[C@@H](C)c3cc(NC(=O)c4ccc(CN5CCOCC5)c(C)c4)ccc3C)nc2n1` [Compound 523, (S)-N-(3-(1-((2-ethyl-2H-pyrazolo[3,4-b]pyrazin-6-yl)amino)ethyl)-4-methylphenyl)-3-methyl-4-(morpholinomethyl) benzamide], the IC50 in experiment [1] and in experiment [2] was below 300 nM in each case.
Regarding `CCn1cc2ncc(N[C@@H](C)c3cccc(NC(=O)c4ccc(C5CC5)nc4)c3)nc2n1` [Compound 283, (S)-6-cyclopropyl-N-(3-(1-((2-ethyl-2H-pyrazolo[3,4-b]pyrazin-6-yl)amino)ethyl)phenyl)nicotinamide], the IC50 in experiment [1] and in experiment [2] was below 300 nM each time.
Regarding `Cc1cncc(C(=O)Nc2cccc([C@H](C)Nc3cnc4[nH]nc(Br)c4n3)c2)c1` [Compound 549, (S)-N-(3-(1-((3-bromo-1H-pyrazolo[3,4-b]pyrazin-5-yl)amino)ethyl)phenyl)-5-methylnicotinamide], the IC50 in experiment [1] and in experiment [2] was below 300 nM each time.
`COc1cc(C(=O)Nc2cccc([C@H](C)Nc3cnc4cnn(C)c4n3)c2)cnc1C` [Compound 252, (S)-5-methoxy-6-methyl-N-(3-(1-((1-methyl-1H-pyrazolo[3,4-b]pyrazin-6-yl)amino)ethyl)phenyl)nicotinamide]: the IC50 in experiment [1] and in experiment [2] was below 300 nM each time.
Turning to `CCn1cc2ncc(N[C@@H](C)c3cccc(NC(=O)c4cnc5c(c4)CCC5)c3)nc2n1` [Compound 58, (S)-N-(3-(1-((2-ethyl-2H-pyrazolo[3,4-b]pyrazin-6-yl)amino)ethyl)phenyl)-6,7-dihydro-5H-cyclope3nta[6] pyridine-3-carboxamide], the IC50 in experiment [1] and in experiment [2] was below 300 nM throughout.
In the case of `C=C(C)c1ncc(C(=O)Nc2cccc([C@H](C)Nc3cnc4cnn(C)c4n3)c2)cc1C` [Compound 216, (S)-5-methyl-N-(3-(1-((1-methyl-1H-pyrazolo[3,4-b]pyrazin-6-yl)amino)ethyl)phenyl)-6-(prop-1-en-2-yl) nicotinamide], the IC50 in experiment [1] and in experiment [2] was below 300 nM throughout.
For `CCn1cc2ncc(N[C@@H](C)c3cc(NC(=O)c4cnc5ccccc5c4)ccc3F)nc2n1` [Compound 63, (S)-N-(3-(1-((2-ethyl-2H-pyrazolo[3,4-b]pyrazin-6-yl)amino)ethyl)-4-fluorophenyl) quinoline-3-carboxamide], the IC50 in experiment [1] and in experiment [2] was below 300 nM throughout.
Take `CCn1cc2ncc(N[C@@H](C)c3cccc(NC(=O)Cc4cccc(Cl)c4)c3)nc2n1` [Compound 621, (S)-2-(3-chlorophenyl)-N-(3-(1-((2-ethyl-2H-pyrazolo[3,4-b]pyrazin-6-yl)amino)ethyl)phenyl)acetamide]: the IC50 in experiment [1] and in experiment [2] was below 300 nM throughout.
In the case of `Cc1c[nH]c2ncc(N[C@@H](C)c3cccc(NC(=O)c4cnc(C(F)(F)F)s4)c3)nc12` [Compound 572, (S)-N-(3-(1-((7-methyl-5H-pyrrolo[2,3-b]pyrazin-2-yl)amino)ethyl)phenyl)-2-(trifluoromethyl)thiazole-5-carboxamide], the IC50 in experiment [1] is 300 to 1000 nM; in experiment [2] it was at least 1000 nM.
For `CCn1cc2ncc(N[C@@H](C)c3cccc(NC(=O)Nc4ccc(N(C)C)nc4)c3)nc2n1` [Compound 739, (S)-1-(6-(dimethylamino)pyridin-3-yl)-3-(3-(1-((2-ethyl-2H-pyrazolo[3,4-b]pyrazin-6-yl)amino)ethyl)phenyl)urea] the same measures were at least 1000 nM and below 300 nM.
For `Cc1ncc(C(=O)Nc2cccc([C@H](C)Nc3cnc4cnn(C)c4n3)c2)cc1F` [Compound 250, (S)-5-fluoro-6-methyl-N-(3-(1-((1-methyl-1H-pyrazolo[3,4-b]pyrazin-6-yl)amino)ethyl)phenyl)nicotinamide] the same measures were below 300 nM and below 300 nM.
For the compound `C[C@H](Nc1cnc2cnn(C)c2n1)c1cccc(NC(=O)c2cncc(C(F)F)c2)c1` [Compound 103, (S)-5-(difluoromethyl)-N-(3-(1-((1-methyl-1H-pyrazolo[3,4-b]pyrazin-6-yl)amino)ethyl)phenyl)nicotinamide], the IC50 in experiment [1] and in experiment [2] was below 300 nM each time.
As to `CCn1cc2ncc(N[C@@H](C)c3cc(NC(=O)Cc4cc(CN5CCN(C)CC5)c(C)cn4)ccc3C)nc2n1` [Compound 722, (S)-N-(3-(1-((2-ethyl-2H-pyrazolo[3,4-b]pyrazin-6-yl)amino)ethyl)-4-methylphenyl)-2-(5-methyl-4-((4-methylpiperazin-1-yl)methyl)pyridin-2-yl)acetamide], the IC50 in experiment [1] was at least 1000 nM; in experiment [2], below 300 nM.
Turning to `CC(=O)OC(C)OC(=O)c1ccc(C(=O)Nc2cccc([C@H](C)Nc3cnc4cnn(C)c4n3)c2)cc1C` (stereo partly drawn) [Compound 256, 1-acetoxyethyl 2-methyl-4-((3-((S)-1-((1-methyl-1H-pyrazolo[3,4-b]pyrazin-6-yl)amino)ethyl)phenyl)carbamoyl) benzoate], the IC50 in experiment [1] and in experiment [2] was below 300 nM in each case.
With `Cc1cncc(C(=O)Nc2cccc([C@H](C)Nc3cnc4cn(-c5ccccc5)nc4n3)c2)c1` [Compound 434, (S)-5-methyl-N-(3-(1-((2-phenyl-2H-pyrazolo[3,4-b]pyrazin-6-yl)amino)ethyl)phenyl)nicotinamide], the IC50 in experiment [1] and in experiment [2] was below 300 nM each time.
`CCn1cc2ncc(N[C@@H](C)c3cc(NC(=O)c4ccc(CN5CCCC5)c(C)c4)ccc3F)nc2n1` [Compound 470, (S)-N-(3-(1-((2-ethyl-2H-pyrazolo[3,4-b]pyrazin-6-yl)amino)ethyl)-4-fluorophenyl)-3-methyl-4-(pyrrolidin-1-ylmethyl)benzamide]: the IC50 in experiment [1] and in experiment [2] was below 300 nM in each case.
Turning to `CCn1cc2ncc(N[C@@H](C)c3cccc(NC(=O)c4ccc(N5CCCC5)c(Cl)c4)c3)nc2n1` [Compound 389, (S)-3-chloro-N-(3-(1-((2-ethyl-2H-pyrazolo[3,4-b]pyrazin-6-yl)amino)ethyl)phenyl)-4-(pyrrolidin-1-yl)benzamide], the IC50 in experiment [1] and in experiment [2] was below 300 nM throughout.
Consider `CCn1cc2ncc(N[C@@H](C)c3cc(NC(=O)c4cnc(C)s4)ccc3F)nc2n1` [Compound 307, (S)-N-(3-(1-((2-ethyl-2H-pyrazolo[3,4-b]pyrazin-6-yl)amino)ethyl)-4-fluorophenyl)-2-methylthiazole-5-carboxamide], for which the IC50 in experiment [1] and in experiment [2] was below 300 nM in each case.

As a reminder, the IC50 is the concentration needed to halve the response being measured.
